Experimental data published in the CheMixHub ionic liquid set.
± gives the uncertainty stated by the source.

Assay: xn = mol fraction of the nth substance listed

CC[NH+](C)CC.O=S(=O)([O-])C(F)(F)F + O
101 kPa
Conditions	viscosity [mPa·s]
293.15 K, x2 = 0.759	7.65 ± 0.53
313.15 K, x2 = 0.037	25.8 ± 1.8
333.15 K, x2 = 0.434	7.33 ± 0.51
333.15 K, x2 = 0.759	2.81 ± 0.2
333.15 K, x2 = 0.844	1.94 ± 0.13
353.15 K, x2 = 0.434	4.89 ± 0.34
353.15 K, x2 = 0.759	2.01 ± 0.14

CC[n+]1ccn(C)c1.N#C[N-]C#N + O
Conditions	electrical conductivity [S/m]	viscosity [mPa·s]
288.15 K, 100 kPa, x2 = 0	–	20 ± 1.2
288.15 K, 100 kPa, x2 = 0.1016	–	17.49 ± 0.96
288.15 K, 100 kPa, x2 = 0.2014	–	15.14 ± 0.77
288.15 K, 100 kPa, x2 = 0.2999	–	13.02 ± 0.61
288.15 K, 100 kPa, x2 = 0.4015	–	11.08 ± 0.45
288.15 K, 100 kPa, x2 = 0.5106	–	9.24 ± 0.32
288.15 K, 100 kPa, x2 = 0.5934	–	7.86 ± 0.24
288.15 K, 100 kPa, x2 = 0.7465	–	5.45 ± 0.13
288.15 K, 100 kPa, x2 = 0.7974	–	4.58 ± 0.1
288.15 K, 100 kPa, x2 = 0.9004	–	2.76 ± 0.04
288.15 K, 100 kPa, x2 = 0.9498	–	1.93 ± 0.03
293.15 K, 100 kPa, x2 = 0	–	16.9 ± 1
293.15 K, 100 kPa, x2 = 0.1016	–	14.89 ± 0.81
293.15 K, 100 kPa, x2 = 0.2014	–	12.98 ± 0.66
293.15 K, 100 kPa, x2 = 0.2999	–	11.23 ± 0.52
293.15 K, 100 kPa, x2 = 0.4015	–	9.59 ± 0.39
293.15 K, 100 kPa, x2 = 0.5106	–	8 ± 0.28
293.15 K, 100 kPa, x2 = 0.5934	–	6.83 ± 0.21
293.15 K, 100 kPa, x2 = 0.7465	–	4.74 ± 0.11
293.15 K, 100 kPa, x2 = 0.7974	–	3.99 ± 0.09
293.15 K, 100 kPa, x2 = 0.9004	–	2.41 ± 0.04
293.15 K, 100 kPa, x2 = 0.9498	–	1.69 ± 0.02
293.2 K, 101 kPa, x2 = 0.6	4.47 ± 0.1	–
293.2 K, 101 kPa, x2 = 0.8	5.69 ± 0.13	–
298.15 K, 100 kPa, x2 = 0	–	14.54 ± 0.88
298.15 K, 100 kPa, x2 = 0.1016	–	12.86 ± 0.7
298.15 K, 100 kPa, x2 = 0.2014	–	11.23 ± 0.57
298.15 K, 100 kPa, x2 = 0.2999	–	9.77 ± 0.46
298.15 K, 100 kPa, x2 = 0.4015	–	8.37 ± 0.34
298.15 K, 100 kPa, x2 = 0.5106	–	7.01 ± 0.24
298.15 K, 100 kPa, x2 = 0.5934	–	5.99 ± 0.19
298.15 K, 100 kPa, x2 = 0.7465	–	4.16 ± 0.1
298.15 K, 100 kPa, x2 = 0.7974	–	3.5 ± 0.07
298.15 K, 100 kPa, x2 = 0.9004	–	2.13 ± 0.03
298.15 K, 100 kPa, x2 = 0.9498	–	1.5 ± 0.02
298.15 K, 101 kPa, x2 = 0	–	14.9 ± 0.62
298.15 K, 101 kPa, x2 = 0.2248	–	11.24 ± 0.46
298.15 K, 101 kPa, x2 = 0.3042	–	10.14 ± 0.41
298.15 K, 101 kPa, x2 = 0.4308	–	8.39 ± 0.34
298.15 K, 101 kPa, x2 = 0.7944	–	3.61 ± 0.15
298.15 K, 101 kPa, x2 = 0.8803	–	2.46 ± 0.1
303.15 K, 100 kPa, x2 = 0	–	12.63 ± 0.77
303.15 K, 100 kPa, x2 = 0.1016	–	11.21 ± 0.61
303.15 K, 100 kPa, x2 = 0.2014	–	9.84 ± 0.5
303.15 K, 100 kPa, x2 = 0.2999	–	8.59 ± 0.4
303.15 K, 100 kPa, x2 = 0.4015	–	7.38 ± 0.3
303.15 K, 100 kPa, x2 = 0.5106	–	6.19 ± 0.22
303.15 K, 100 kPa, x2 = 0.5934	–	5.29 ± 0.16
303.15 K, 100 kPa, x2 = 0.7465	–	3.67 ± 0.09
303.15 K, 100 kPa, x2 = 0.7974	–	3.09 ± 0.07
303.15 K, 100 kPa, x2 = 0.9004	–	1.89 ± 0.03
303.15 K, 100 kPa, x2 = 0.9498	–	1.34 ± 0.02
308.15 K, 100 kPa, x2 = 0	–	11.05 ± 0.67
308.15 K, 100 kPa, x2 = 0.1016	–	9.86 ± 0.54
308.15 K, 100 kPa, x2 = 0.2014	–	8.69 ± 0.44
308.15 K, 100 kPa, x2 = 0.2999	–	7.61 ± 0.36
308.15 K, 100 kPa, x2 = 0.4015	–	6.55 ± 0.27
308.15 K, 100 kPa, x2 = 0.5106	–	5.5 ± 0.19
308.15 K, 100 kPa, x2 = 0.5934	–	4.71 ± 0.15
308.15 K, 100 kPa, x2 = 0.7465	–	3.27 ± 0.08
308.15 K, 100 kPa, x2 = 0.7974	–	2.76 ± 0.06
308.15 K, 100 kPa, x2 = 0.9004	–	1.7 ± 0.03
308.15 K, 100 kPa, x2 = 0.9498	–	1.2 ± 0.02
308.2 K, 101 kPa, x2 = 0.2	3.89 ± 0.08	–
308.2 K, 101 kPa, x2 = 0.6	6.36 ± 0.14	–
313.15 K, 100 kPa, x2 = 0	–	9.76 ± 0.59
313.15 K, 100 kPa, x2 = 0.1016	–	8.74 ± 0.48
313.15 K, 100 kPa, x2 = 0.2014	–	7.73 ± 0.39
313.15 K, 100 kPa, x2 = 0.2999	–	6.79 ± 0.32
313.15 K, 100 kPa, x2 = 0.4015	–	5.86 ± 0.24
313.15 K, 100 kPa, x2 = 0.5106	–	4.93 ± 0.17
313.15 K, 100 kPa, x2 = 0.5934	–	4.23 ± 0.13
313.15 K, 100 kPa, x2 = 0.7465	–	2.93 ± 0.07
313.15 K, 100 kPa, x2 = 0.7974	–	2.48 ± 0.05
313.15 K, 100 kPa, x2 = 0.9004	–	1.53 ± 0.02
313.15 K, 100 kPa, x2 = 0.9498	–	1.09 ± 0.02
313.15 K, 101 kPa, x2 = 0.2248	–	7.79 ± 0.32
313.15 K, 101 kPa, x2 = 0.8803	–	1.73 ± 0.07
313.15 K, 101 kPa, x2 = 0.953	–	1.08 ± 0.04
313.2 K, 101 kPa, x2 = 0.2	4.32 ± 0.09	–
313.2 K, 101 kPa, x2 = 0.8	8.83 ± 0.19	–
318.15 K, 100 kPa, x2 = 0	–	8.69 ± 0.53
318.15 K, 100 kPa, x2 = 0.1016	–	7.79 ± 0.43
318.15 K, 100 kPa, x2 = 0.2014	–	6.92 ± 0.35
318.15 K, 100 kPa, x2 = 0.2999	–	6.1 ± 0.28
318.15 K, 100 kPa, x2 = 0.4015	–	5.27 ± 0.21
318.15 K, 100 kPa, x2 = 0.5106	–	4.45 ± 0.16
318.15 K, 100 kPa, x2 = 0.5934	–	3.81 ± 0.12
318.15 K, 100 kPa, x2 = 0.7465	–	2.64 ± 0.06
318.15 K, 100 kPa, x2 = 0.7974	–	2.24 ± 0.05
318.15 K, 100 kPa, x2 = 0.9004	–	1.39 ± 0.02
318.15 K, 100 kPa, x2 = 0.9498	–	0.99 ± 0.01
318.2 K, 101 kPa, x2 = 0.2	4.77 ± 0.1	–
328.15 K, 101 kPa, x2 = 0.7944	–	1.9 ± 0.08
328.2 K, 101 kPa, x2 = 0.2	5.74 ± 0.12	–
338.2 K, 101 kPa, x2 = 0.4	8.22 ± 0.17	–
338.2 K, 101 kPa, x2 = 0.6	10.6 ± 0.22	–
343.15 K, 101 kPa, x2 = 0	–	5.48 ± 0.23
